Results reported in a melting point compilation (Tetko et al.; mined from patent text by program, amines drawn as free bases though some values may be those of a salt).

Row | Compound | melting point [°C]
1 | CC(C)(C)SC1CN(C(=O)NCCN2C(=O)c3ccccc3C2=O)CC1NS(=O)(=O)c1ccc(Oc2ccccc2)cc1 (stereo not given) | 105 to 106
2 | CC(=S)c1ccc(Cc2ccc(C(C)=S)cc2)cc1 | 54 to 55
3 | CCOc1ccc(C2=NN(CCCCCCBr)C(=O)[C@H]3CCCC[C@@H]23)cc1OCC (relative stereo) | 47 to 51
4 | CC(=O)Nc1nc(C(F)(F)F)ns1 | 178
5 | CCCCCCCCCCC/C=C\c1c[nH]c(C(=O)O)c1 | 157 to 158
6 | CCCCC1(O)CCN(C(=O)C(c2ccccc2)n2cnc3[nH]ncc3c2=S)CC1 (stereo not given) | 98 to 102
7 | CCCc1c(OCC(O)CS(=O)(=O)c2ccc(C(=O)CCC(=O)O)cc2F)ccc(C(C)=O)c1O (stereo not given) | 96 to 99
8 | Cc1[nH]c2ccccc2c1CCN1CCC(Oc2ccc(F)cc2)CC1 | 97 to 99
9 | CCCNC(=O)C(Cc1ccc2c(c1)c(Cc1ccc(C(=O)O)cc1OC)cn2CCC)C(C)C (stereo not given) | 160 to 162
10 | CC(=O)c1cc(NC(=O)NCCN(CCNC(=O)Nc2cc(C(C)=O)cc(C(C)=O)c2)CCNC(=O)Nc2cc(C(C)=O)cc(C(C)=O)c2)cc(C(C)=O)c1 | 197 to 198
11 | Oc1cc(F)ccc1Oc1ccc(-c2ccco2)cc1O | 102 to 104
12 | Nc1cc2c(cc1[N+](=O)[O-])CCCCC2 | 137 to 139
13 | CC(C)[C@H](N)C(=O)OCc1nc2c(N)nc3ccccc3c2n1CC(C)(C)O | 190 to 192
14 | Nc1nc(N)c(CCCCc2ccc(C(=O)N[C@@H](CCC(=O)O)C(=O)O)cc2)c(O)n1 | 169 to 171
15 | CSC(Cc1cnn(-c2c(Cl)cc(C(F)(F)F)cc2Cl)n1)SC | 97 to 98
16 | COc1ccc2c(c1)C(CCNC(C)=O)CC2 (stereo not given) | 73 to 74
17 | Cc1ccc2cccc(OCc3c(Cl)ccc(N4CC(=O)NCC4=O)c3Cl)c2n1 | 211 to 213
18 | Nc1cccc2c1C1CC3(CCN1C2=O)OCCO3 (stereo not given) | 76
19 | Cn1c(-c2ccc(-c3cccnc3)cc2)cnc1[C@H](Cc1ccccn1)N(C=O)c1cc2cc(Br)ccc2o1 | 168 to 171
20 | COc1ccc2c(=O)[nH]nc(-c3ccccc3)c2c1 | 230 to 235
21 | CC(=O)c1c(C)c(NC(=O)CC(C)(C)C)c(C)c2c1SCC2c1ccc(C(C)C)cc1 (stereo not given) | 218 to 219
22 | CC(C)(C)OC(=O)N(CC#N)CCN(CC#N)C(=O)OC(C)(C)C | 112 to 113
23 | CCCN(CCC)C(=O)CNc1nc(-c2ccccc2)ncc1[N+](=O)[O-] | 142 to 143
24 | CCn1c(C(O)(C2CC2)C2CC2)nc(-c2ccncc2)c1-c1ccc(Cl)cc1 | 185 to 188

Row | Compound | melting point [°C]
25 | Cc1onc(-c2ccccc2)c1-c1ccc(S(=O)(=O)NC(=O)CC(C)(C)SN=O)cc1 | 138 to 140
26 | CCCO[C@@H]1C[C@@H](C(=O)NC)N(S(=O)(=O)c2ccc(Cl)c(COc3cccc4c(-n5ccnc5)cc(C)nc34)c2Cl)C1 | 84
27 | CCOC(=O)c1ccccc1SN(C(=O)NC(=O)c1ccccc1Cl)c1ccc(Oc2ccc(C(F)(F)F)cc2Cl)cc1 | 98 to 100
28 | CC(C)Oc1c(Br)csc1C(=O)Nc1nnn[nH]1 | 193 to 194
29 | COc1ccc([C@H]2NC(=S)N[C@H]2c2ccc(OC)cc2)cc1 | 226 to 227
30 | Cn1ccnc1Sc1ccc(Nc2c(C#N)cnc3cc(/C=C/CO)ccc23)cc1Cl | 220 to 240
31 | CC(=O)CCC(=O)C1=Cc2ccccc2C1 | 85
32 | Nc1cccc(C(=O)Nc2ccc(C(=O)N3CCCc4ccccc43)cc2)c1 | 206
33 | O=c1c(Cc2ccncc2)c(-c2ccc(F)cc2)[nH]c2ccccc12 | 144 to 146
34 | O=C(CCCCN1CCC(Cc2ccccc2)CC1)c1ccc2c(c1)Cc1cc(C(=O)CCCCN3CCC(Cc4ccccc4)CC3)ccc1-2 | 147 to 149
35 | Fc1ccccc1-c1ccc(Cl)nn1 | 95 to 96
36 | CCOC(=O)c1cn(C2CC2)c2nc(N3CCC(NC(C)=O)C3)c(F)cc2c1=O (stereo not given) | 246 to 248
37 | O=C(N[C@H]1CC[C@H](CCN2CCN(c3nccc4c3OCC4)CC2)CC1)c1cnc(N2CCOCC2)cn1 | 200
38 | Cc1ccc(C(=S)c2ccccc2C(=O)O)cc1 | 151 to 155
39 | N#Cc1cccc(N=C(NCC(=O)O)NCC2CCCCC2)c1 | 80 to 83
40 | N#CC(CCN1CCC(C(=O)ON2C(=O)c3ccccc3C2=O)(c2ccccc2)CC1)(c1ccccc1)c1ccccc1 | 156 to 158
41 | O=c1ccc2c(-c3cccc([N+](=O)[O-])c3)nccc2[nH]1 | > 300
42 | CCOC(=O)C=Cc1cc(Cl)ccc1Cl | 34 to 36
43 | Cc1cc(SC(C)C)c(NC(=O)CSc2nc3ccccc3s2)c(SC(C)C)n1 | 117 to 118
44 | Cn1c(-c2ccc(OC3CCN(C4CCC4)CC3)cc2)nc2cccnc2c1=O | 182 to 183
45 | COCCOCCOCC(=O)Nc1cc(N)cc(C(=O)O)c1 | 130 to 131
46 | Cc1cc2n(C)c3ccncc3c(=O)n2n1 | > 300
47 | CCCOc1ccccc1-c1nc2c(C(N)=O)cccc2c(=O)[nH]1 | 226 to 227
48 | COC(=O)CCc1ccc(NC(=O)C(Cn2ccnc2)NS(=O)(=O)c2ccc(Cl)cc2)cc1 (racemic) | 79 to 82

Row | Compound | melting point [°C]
49 | CC1=NOC2C3CC(C12)C1C(=O)OC(=O)C31 (stereo not given) | 194 to 197
50 | CCn1c(=O)c2[nH]c(/C=C/c3ccc(OC)c(C)c3C)nc2n(CC)c1=O | > 280
51 | CCOC(=O)c1c(C)nc2c(C(F)(F)F)cccc2c1O | 165
52 | O=c1[nH]c(=O)c2cc(S(=O)(=O)O)ccc2[nH]1 | > 300
53 | CN(CCO)c1nccc(-c2ccncc2)n1 | 191 to 195
54 | COc1cc(CO)ccc1OCc1csc(N2CCOCC2)n1 | 94 to 95
55 | CCC(=NN=C(c1ccc(Cl)cc1)c1ccc(OS(C)(=O)=O)cc1)NN=C(c1ccc(Cl)cc1)c1ccc(OS(C)(=O)=O)cc1 | 184 to 185
56 | C=CCc1ccc(CCNC(=O)c2cc(Cl)ccc2OC)cc1S(=O)(=O)NC(=O)NC | 124 to 126
57 | Nc1nc(N)c(CCCN(C(=O)C(F)(F)F)c2ccc(C(=O)O)cc2)c(=O)[nH]1 | 229 to 230
58 | CCCc1nc2c(C(F)(F)F)cccc2c(O)c1C(=O)OCC | 98
59 | CC(C)(C)OC(=O)NN(C(=O)c1ccccc1)C(C)(C)C | 167 to 170
60 | Nc1nc(N2CCC2)c2nc[nH]c2n1 | 280
61 | O=C(Nc1ccc(F)cc1)NN(c1ccccc1)c1ccccc1 | 214
62 | COC(=O)C(C)=Cc1cc(N=C=S)ccc1Cl | 60 to 61
63 | COc1ccc(C(C)N(C)CCCOc2ccc(S(=O)(=O)c3c(C(C)C)n(C)c4ccccc34)cc2)cc1OC (stereo not given) | 96
64 | C(=C\c1ccoc1)/c1ccccc1 | 96
65 | O=C(O)C1=Cc2c(Cl)ccc(Cl)c2OC1C(F)(F)F (stereo not given) | 206 to 207
66 | CCCCCCCCCCCCCCCCNC(=O)Nc1sc(C(=O)O)c(C)c1C(=O)OC(C)(C)C | 188 to 189
67 | C=CC(=O)C1C(=O)N(c2ccc(OC)cc2)C1c1ccccc1Cl (stereo not given) | 99 to 100
68 | COC(=O)/C=C/c1cc(C)cc(NC(C)=O)n1 | 139
69 | COC(=O)N(C)c1cccc(-c2ccc3nnc(C)n3n2)c1 | 164 to 166
70 | CNc1nc(-c2cccc(-c3ccc4nccn4c3)c2)c2cc(OC)c(OC)cc2n1 | 237 to 239
71 | CCC(C)N(C)C(=O)c1cc2sccc2c(-c2ccccc2)n1 (stereo not given) | 104
72 | COC1C=C(C)C(=O)CC(C)(C)C1OC(=O)c1ccc([N+](=O)[O-])cc1 (stereo not given) | 122 to 123

Row | Compound | melting point [°C]
73 | CCCN(CCN1CCN(c2cccc(Cl)c2Cl)CC1)C1CCc2ncsc2C1 (stereo not given) | 104
74 | COc1cc(C(=O)NCCC2Cc3c(C)c(OCc4ccccc4)c(C)c(C)c3O2)cc(OC)c1OC (racemic) | 171 to 173
75 | COc1ccc(CCOc2cccc(-c3cccc(C(N)=O)c3)n2)cc1OC | 141 to 142
76 | O=C1NC(=O)C(Cc2ccc(OCCON=Cc3cncc(-c4ccccc4)c3)cc2)S1 (stereo not given) | 160 to 161
77 | Cc1c(-c2ccccc2)c(N2CC[C@H](N(C)C)C2)c2oc(-c3ccccc3[N+](=O)[O-])nc2c1C#N | 139 to 142
78 | S=C(S)CCc1ccccc1 | 57 to 59
79 | COc1cc(C(CCN(C)C)C(N)=O)cc(OC)c1OC (stereo not given) | 110 to 112
80 | COc1cc(Nc2ncc(-c3ccccc3C(=O)O)o2)ccc1-c1cnco1 | 271 to 274
81 | CC(C)(C)N1C(=O)OC2(CCN(Cc3ccccc3)CC2)C1(C)O (stereo not given) | 179 to 181
82 | CN1CC=C(c2c[nH]c3ccc(NC(=S)NC(=O)c4ccccc4)cc23)CC1 | 182 to 184
83 | CC(=O)OCC(=O)C1=CCC2C3CCC4=CC(=O)C=CC4(C)C3(F)C(OC(C)=O)CC12C (stereo not given) | 294 to 296
84 | CCC(C)COC(=O)C1(OC(=O)c2ccc(O)cc2)C=CC=CC1 (stereo not given) | 90.8 to 92.6
85 | COc1ccc(Cl)cc1C(=O)Nc1ccc(CCC(=O)O)cc1 | 188 to 190
86 | Cc1cc(-n2ccnc2)c2cccc(OCc3c(Cl)ccc(S(=O)(=O)N4CCC[C@H]4C(=O)NCc4ccccn4)c3Cl)c2n1 | 102
87 | CN(C(=O)c1cc2ccccc2s1)c1ccc(N2CCC(O)CC2)c(C#N)c1 | 211 to 212
88 | CC(C)(C)N1CC(=O)Nc2ccc(C#C[Si](C)(C)C)cc2C1=O | 243 to 244
89 | CCOC(=O)[C@@H]1CSC=CN1C(=O)[C@@H](Cc1ccccc1)N1C(=O)c2ccccc2C1=O (relative stereo) | 193
90 | COc1ccc(S(=O)(=O)c2c(C(C)C)n(C)c3ccccc23)cc1 | 125
91 | COc1ccc(-c2cnc(N)c(Sc3ccc(C)cc3)n2)cc1 | 107 to 110
92 | CCN(CC)CCN1c2cc(Cl)ccc2S[C@H]2[C@@H](OC(=O)c3ccccc3)[C@H](OC(=O)c3ccccc3)[C@@H](COC(=O)c3ccccc3)O[C@H]21 | 124 to 126
93 | COC(=O)c1cc(O)cc(OCCCOc2ccc(OCc3ccccc3)cc2)c1 | 120 to 122
94 | Nc1nc2ccc(OC(F)(F)C(F)(F)F)cc2s1 | 156
95 | CC(C)Cn1c(CN2CCCS2(=O)=O)nc2c(N)nc3ccccc3c21 | 230 to 232
